Key:
[1] = system: Kaolin-induced edema of the hind paw of the rat; assay: Kaolin-induced edema of the hind paw of the rat (antiexudative effect); type: in vivo, rat (male FW 49); settings: per os, 30 min before edema, measured 5 h after, dose for 35% reduction of swelling, by graphical extrapolation
Experimental: (§1) The compounds were tested with respect to their antiexudative effect on the kaolin-induced edema and the carrageenin-induced edema of the hind paw of the rat and with respect to their acute toxicity after oral administration to rats, in comparison with phenylbutazone, a compound with known antiphlogistic activities.
(§2) a. Kaolin-induced edema of the hind paw of the rat
(§3) The kaolin edema was induced according to the method given by Hillebrecht [Arzneimittel-Forsch. 4, 607 (1954)] by subplantary injection of 0.05 ml of a 10% suspension of kaolin in a 0.85% sodium chloride solution. Measurement of the volume of the paws was effected using the technique of Doepfner and Cerletti [Int. Arch. Allergy Immunol. 12, 89 (1958)].
(§4) Male FW 49 rats having an average weight of 120 to 150 gm were fed with the test compounds 30 minutes before inducing the edema by means of an oesophageal tube. 5 hours after the provocation of the edema the averaged values of the swelling caused in the rats treated with the test compounds were compared with values measured on control animals. By graphical extrapolation, the dose leading to a 35% reduction of the swelling (ED35) was calculated from the presentage reduction values measured by the administration of different doses.

[2] = system: Carrageenin-induced edema of the hind paw of the rat; assay: Carrageenin-induced edema of the hind paw of the rat (antiexudative effect); type: in vivo, rat (male FW 49); settings: per os, 60 min before edema, measured 3 h after, dose for 35% reduction of swelling
Experimental: as §1, §4
(§5) b. Carrageenin-induced edema of the hind paw of the rat
The provocation of the carrageenin edema was effected according to the method of Winter et al [Proc. Soc. exp. Biol. Med. 111, 544 (1962)] by subplantary injection of 0.05 ml of a 1% solution of carrageenin in a 0.85% solution of sodium chloride. The test compounds were administered 60 minutes before the provocation of the edema.
For the calculation of the reductive effect on the edema the values measured 3 hours after the provocation of the edema were used. All the other details were the same as described above in the case of the kaolin-induced edema.

[3] = system: kaolin-induced edema and carrageenin-induced edema of the hind paw of the rat; assay: Antiphlogistic (antiexudative) activity, kaolin and carrageenin edema together; type: in vivo, rat (male FW 49); settings: average value from kaolin edema and carrageenin edema, per os
Experimental: The above pharmacodynamic activity of the compounds of the present invention, namely their antiphlogistic activity and their toxicity, were ascertained in the manner described below.
as §1, §2, §3, §4, §5
The provocation of the carrageenin edema was effected according to the method of Winter et al [Proc. Soc. exp. […]
For the calculation of the reductive effect on the edema the values measured 3 hours after the provocation of the edema were used. […]
(§6) The therapeutical index (a measure for the therapeutic usefulness) was calculated as the quotient of the oral LD50 and of the ED35 value calculated from the anti-exudative effect (average value from the kaolin-edema and the carrageenin-edema).

in vivo = settings: rat; for LD50 at 336 h: in vivo, po
Source text: The substances were fed as a trituration in Tylose.
The calculation of the LD50 values was effected, as far as possible according to the method of Litchfield and Wilcoxon, based on the percentage of animals which died within 14 days after administration of the different doses.

[4] = Therapeutic index (LD50/ED35); settings: in vivo; oral LD50 / average ED35, rat; read-out: Therapeutical Index, ratio between toxic and antiexudative activity LD50/ED35
Experimental: as §6

OCCC=Cc1ccc(-c2ccccc2F)cc1 [A, 4-(2"-fluoro-4'-biphenylyl)-3-buten-1-ol] gave an ED35 [1] of 44 mg/kg, an ED35 [2] of 19 mg/kg and an ED35 [3] of 31.5 mg/kg. It also gave an LD50 at 336 h (in vivo) of 1770 mg/kg and a selectivity ratio [4] of 56.2.
With OCCC=Cc1ccc(-c2ccccc2)cc1 [B, 4-(4'-biphenylyl)-3-buten-1-ol] the ED35 [1] was 42 mg/kg, the ED35 [2] was 50 mg/kg and the ED35 [3] was 46 mg/kg. The “animals died after application” value (in vivo; 2000 mgm/kg per os) was 0 out of 10 animals died, the LD50 at 336 h (in vivo) was over 2000 mg/kg and the selectivity ratio [4] was over 43.5.
With CCCCC1C(=O)N(c2ccccc2)N(c2ccccc2)C1=O [Phenylbutazone, phenylbutazone, reference compound] the ED35 [1] was 58 mg/kg, the ED35 [2] was 69 mg/kg and the ED35 [3] was 63.5 mg/kg.
